Laboratory results reported in US9073961B2, “Substitution derivatives of N6 -benzyladenosine-5′-monophosphate, methods of preparation thereof, use thereof as medicaments, and therapeutic preparations containing these compounds” (UNIVERZITA PALACKEHO V OLOMOUCI, priority 2010, dated 2015).

Experiments:
[1] = test system: HOS (human osteogenic sarcoma); assay: Calcein AM cytotoxicity assay, HOS; format: cell-based; conditions: 72 hours incubation
From the text: (§1) Because toxic compounds negatively influence metabolic processes in cells, many standard cytotoxicity assays are based on measurement of metabolisation rate of various artificial substrates. Resulting product is then quantified e.g. by means of spectrometry. The assays can be easily modified for use in 96-well plates. For evaluation of cytotoxic effect of the novel substituted 9-substituted cytokinin derivatives of this invention, a microtiter assay based on quantification of metabolisation of Calcein AM was used. The assay is widely used in drug screening programs and in chemosensitivity testing. In the living cells, Calcein AM is enzymatically hydrolysed and accumulation of resulting calcein is manifested by green fluorescence.
(§2) In the routine screening the following cell lines have been used: CEM (T-lymphoblastoid leukemia), HL-60 (promyelocytic leukemia), K-562 (human erythroleukemia), MCF-7 (breast carcinoma), HOS (human osteogenic sarcoma), and G-361 (human malignant melanoma). Normal human fibroblasts BJ were used as a control for routine screening of the compounds. The cells were kept in Nunc/Corning 80 cm^2 plastic bottles and grown in cell culture medium (DMEM containing 5 g/l glucose, 2 mM glutamine, 100 U/ml penicilline, 100 μg/ml streptomycine, 10% fetal bovine serum and sodium hydrogencarbonate), the compounds were prepared according to the procedure of the present invention.
(§3) The cell suspensions were prepared and diluted according to the particular cell type and the expected target cell density (2.500-30.000 cells per well based on cell growth characteristics) and pippetted (80 μl) into 96-well plates. Inoculates were allowed a pre-incubation period of 24 hours at 37° C. and 5% CO2 for stabilisation. Tested compound was added in total volume of 20 μl of water at time zero. Usually, test compound was evaluated at six 3-fold dilutions. In routine testing, the highest concentration tested was 166.7 μM. All drug concentrations were tested in triplicates. Incubations of cells with the test compounds lasted for 72 hours at 37° C., in 5% CO2 atmosphere and 100% humidity. At the end of incubation period Calcein AM in PBS was added into final concentration of 1 μg/ml. After another 1 hour of incubation fluorescence (FD) was measured with the Labsystem FIA Reader Fluoroscan Ascent (Microsystems). Tumor cell survival (TCS) was estimated using the following equation: […]=(FDdrug exposed well/FDcontrol well)×100%. The GI50 value, the drug concentration causing 50% reduction of esterase activity, was calculated from the obtained dose response curves (FIG. 1).
(§4) Cytoxicity of novel compounds was tested on panel of cell lines of different histogenetic and species origin (Table 3). […] The effective novel derivatives killed tumour cells in concentrations close to 0.1-50 μM.

[2] = test system: K-562 (human erythroleukemia); assay: Calcein AM cytotoxicity assay, K-562; format: cell-based; conditions: 72 hours incubation
From the text: as §1, §2, §3, §4

MCF-7 (breast carcinoma) = assay: Calcein AM cytotoxicity assay, MCF7; format: cell-based; conditions: 72 hours incubation
From the text: as §1, §2, §3, §4

[3] = test system: Normal human fibroblasts BJ; assay: Calcein AM cytotoxicity assay, BJ; format: cell-based; conditions: 72 hours incubation
From the text: as §1, §2, §3, §4

[4] = test system: CEM (T-lymphoblastoid leukemia); assay: Calcein AM cytotoxicity assay, CEM; format: cell-based; conditions: 72 hours incubation, Calcein AM
From the text: as §1, §2, §3, §4

[5] = test system: HL-60 (promyelocytic leukemia); assay: Calcein AM cytotoxicity assay, HL60; format: cell-based, human; conditions: 72 hours incubation
From the text: as §1, §2, §3, §4

[6] = test system: cytokinin-dependent tobacco callus Nicotiana tabacum L. cv. Wisconsin 38; assay: Growth of cytokinin-dependent tobacco callus; format: cell-based; conditions: for Activity (%) [10^−5 mol · l^−1 KR = 100%]: at concentration with highest activity, relative to control cytokinin; for Concentration with highest activity: tobacco callus fresh weight after four weeks
Method: Cytokinin effect of newly prepared derivatives was tested using cytokinin-dependent tobacco callus. The cytokinin-dependent tobacco callus Nicotiana tabacum L. cv. Wisconsin 38 was maintained at 25° C. in darkness on modified MS medium, containing per 1 liter: 4 μmol of nicotinic acid, 2.4 μmol of pyridoxine hydrochloride, 1.2 μmol of thiamine, 26.6 μmol of glycine, 1.37 μmol of glutamine, 1.8 μmol of myo-inositol, 30 g of sucrose, 8 g of agar, 5.37 μmol of NAA and 0.5 μmol of the compound tested. Subcultivation was carried out every three weeks. Fourteen days before the bioassay, the callus tissue was transferred to the media without 6-benzylaminopurine. The biological activity was determined from the increase of the fresh callus weight after four weeks of cultivation. Five replicates were prepared for each concentration of the compound tested and the entire test was repeated twice. […] The compounds to be tested were dissolved in dimethylsulfoxide (DMSO) and the solution brought up to 10^−3 M with distilled water. […] The stimulatory activity was calculated from the dose-dependent fresh weight callus growth curves.
From the obtained data, the concentration with the highest activity was selected for each compound tested. Relative activity of the compound at this concentration was calculated (Table 5). […]

| Compound | GI50 [1] [µM] | GI50 [2] [µM] | GI50 (MCF-7 (breast carcinoma)) [µM] | GI50 [3] [µM] | GI50 [4] [µM] | GI50 [5] [µM] | Activity (%) [10^−5 mol · l^−1 KR = 100%] [6] [%] | Concentration with highest activity [6] |
| --- | --- | --- | --- | --- | --- | --- | --- | --- |
| O=P(O)(O)OC[C@H]1O[C@@H](n2cnc3c(NCc4cccc(Br)c4)ncnc32)[C@H](O)[C@@H]1O [Compound 8, 6-(3-bromoobenzylamino)purine riboside-5′-monophosphate] | > 167 | 19.7 | > 167 | > 167 | 5 | 8 | 102 ± 11 | 10^−6 mol · l^−1 |
| O=P(O)(O)OC[C@H]1O[C@@H](n2cnc3c(NCc4cc(F)cc(F)c4)ncnc32)[C@H](O)[C@@H]1O [Compound 37, 6-(3,5-difluorobenzylamino)purine riboside-5′-monophosphate] | > 167 | > 167 | > 167 | > 167 | 24.5 | 9.1 | 105 ± 3 | 10^−6 mol · l^−1 |
| O=P(O)(O)OC[C@H]1O[C@@H](n2cnc3c(NCc4c(F)ccc(F)c4F)ncnc32)[C@H](O)[C@@H]1O [Compound 40, 6-(2,3,6-trifluorobenzylamino)purine riboside-5′-monophosphate] | > 167 | > 167 | > 167 | > 167 |  | 13 |  |  |
| O=P(O)(O)OC[C@H]1O[C@@H](n2cnc3c(NCc4ccc(F)c(Cl)c4)ncnc32)[C@H](O)[C@@H]1O [Compound 41, 6-(3-chloro-4-fluorobenzylamino)purine riboside-5′-monophosphate] | > 167 | 4.1 | > 167 | > 167 | 3.4 | 3.5 | 107 ± 4 | 10^−6 mol · l^−1 |
| COc1cccc(CNc2ncnc3c2ncn3[C@@H]2O[C@H](COP(=O)(O)O)[C@@H](O)[C@H]2O)c1OC [Compound 31, 6-(2,3-dimethoxybenzylamino)purine riboside-5′-monophosphate] | > 167 | > 167 | > 167 | > 167 | > 167 | 109 |  |  |
| COc1cc(CNc2ncnc3c2ncn3[C@@H]2O[C@H](COP(=O)(O)O)[C@@H](O)[C@H]2O)cc(OC)c1 [Compound 34, 6-(3,5-dimethoxybenzylamino)purine riboside-5′-monophosphate] | > 167 | > 167 | > 167 | > 167 |  | 18.8 |  |  |
| O=P(O)(O)OC[C@H]1O[C@@H](n2cnc3c(NCc4ccc(Br)cc4)ncnc32)[C@H](O)[C@@H]1O [Compound 9, 6-(4-bromobenzylamino)purine riboside-5′-monophosphate] | > 167 | 68.2 | > 167 | > 167 | 20.6 | 47.7 |  |  |
| O=P(O)(O)OC[C@H]1O[C@@H](n2cnc3c(NCc4ccc(Cl)cc4Cl)ncnc32)[C@H](O)[C@@H]1O [Compound 24, 6-(2,4-dichlorobenzylamino)purine riboside-5′-monophosphate] | > 167 | 85.7 | 127 | > 167 | 86.7 | 96.3 |  |  |
| O=P(O)(O)OC[C@H]1O[C@@H](n2cnc3c(NCc4cc(F)c(F)cc4F)ncnc32)[C@H](O)[C@@H]1O [Compound 39, 6-(2,4,5-trifluorobenzylamino)purine riboside-5′-monophosphate] |  |  |  |  |  |  | 105 ± 3 | 10^−5 mol · l^−1 |
| COc1ccc(CNc2ncnc3c2ncn3[C@@H]2O[C@H](COP(=O)(O)O)[C@@H](O)[C@H]2O)c(OC)c1 [Compound 32, 6-(2,4-dimethoxybenzylamino)purine riboside-5′-monophosphate] | > 167 | > 167 | > 167 | > 167 | > 167 | 39 |  |  |
| O=P(O)(O)OC[C@H]1O[C@@H](n2cnc3c(NCc4ccc(Cl)c(Cl)c4)ncnc32)[C@H](O)[C@@H]1O [Compound 25, 6-(3,4-dichlorobenzylamino)purine riboside-5-monophosphate] | > 167 | 6.5 | 88.8 | > 167 | 3 | 1.1 |  |  |
| O=P(O)(O)OC[C@H]1O[C@@H](n2cnc3c(NCc4ccc(F)c(F)c4F)ncnc32)[C@H](O)[C@@H]1O [Compound 38, 6-(2,3,4-trifluorobenzylamino)purine riboside-5′-monophosphate] | > 167 | > 167 | > 167 | > 167 | 58.2 | 13 |  |  |
| COc1ccc(CNc2ncnc3c2ncn3[C@@H]2O[C@H](COP(=O)(O)O)[C@@H](O)[C@H]2O)cc1O [Compound 30, 6-(3-hydroxy-4-methoxybenzylamino)purine riboside-5′-monophosphate] | > 167 | > 167 | > 167 | > 167 | 79.3 | 68.9 |  |  |
| O=P(O)(O)OC[C@H]1O[C@@H](n2cnc3c(NCc4ccc(F)cc4Cl)ncnc32)[C@H](O)[C@@H]1O [2-chloro-4-fluorobenzylamino, 6-(2-chloro-4-fluorobenzylamino)purine riboside-5′-monophosphate] | > 167 | 11.7 | > 167 | > 167 | 20.9 | 9 | 108 ± 4 | 10^−5 mol · l^−1 |
| O=P(O)(O)OC[C@H]1O[C@@H](n2cnc3c(NCc4ccccc4Br)ncnc32)[C@H](O)[C@@H]1O [Compound 7, 6-(2-bromobenzylamino)purine riboside-5′-monophosphate] | > 167 | 10 | > 167 | > 167 | 12.3 | 6.6 | 100 ± 4 | 10^−5 mol · l^−1 |
| O=P(O)(O)OC[C@H]1O[C@@H](n2cnc3c(NCc4ccc(F)cc4F)ncnc32)[C@H](O)[C@@H]1O [Compound 36, 6-(2,4-difluorobenzylamino)purine riboside-5-monophosphate] | > 167 | 7.4 | > 167 | > 167 | 7.1 | 3.4 |  |  |
